Data taken from patent US11053226B2, “KRAS G12C inhibitors and methods of using the same” (Amgen Inc., priority 2018, dated 2021).
Where two headings read alike, the source gives them in different places.

Tests used:
[1] = test system: Phosphorylation of ERK1/2 in A549 cells; test: Phospho-ERK1/2 MSD Assay (A549); assay type: cell-based
[2] = molecular target: GDP-bound KRAS protein (aa 1-169), containing both G12C and C118A amino acid substitutions (Homo sapiens (Human), UniProt P01116, C118A/G12C); test: Coupled Nucleotide Exchange Assay; assay type: biochemical
Method: (§1) For compounds in Table 9, the following assay conditions were employed:
Coupled Nucleotide Exchange Assay:
The assay plates were then read on a PerkinElmer EnVision Multilabel Reader, using AlphaScreen® technology, and data were analyzed using a 4-parameter logistic model to calculate IC50 values.

[3] = test system: Phosphorylation of ERK1/2 in MIA PaCa-2 cells; test: Phospho-ERK1/2 MSD Assay; assay type: cell-based; details: MiaPaCa-2 cells
Method: as §1
Phospho-ERK1/2 MSD Assay:
Sixteen hours prior to compound treatment, MIA PaCa-2 cells were seeded in 96-well cell culture plates at a density of 25,000 cells/well and incubated at 37° C., 5% CO2. […] Following compound treatment, cells were stimulated with 10 ng/mL EGF (Roche 11376454001) for 10 min, washed with ice-cold Dulbecco's phosphate-buffered saline, no Ca^2+ or Mg^2+ (ThermoFisher Scientific 14190144), and then lysed in RIPA buffer (50 mM Tris-HCl pH 7.5, 1% Igepal, 0.5% sodium deoxycholate, 150 mM NaCl, and 0.5% sodium dodecyl sulfate) containing protease inhibitors (Roche 4693132001) and phosphatase inhibitors (Roche 4906837001). […] Assay plates were read on a Meso Scale Discovery Sector Imager 6000, and data were analyzed using a 4-parameter logistic model to calculate IC50 values.

[4] = Homo sapiens, A549, 4 h, read-out: pERK IC50 (4 h, A549), 4 h compound treatment
[5] = read-out: Coupled Exchange IC50 (2 h), 2 h compound pre-incubation
[6] = Homo sapiens, MIA PaCa-2, 4 h, read-out: pERK IC50 (4 h, MiaPaCa-2), 4 h compound treatment
[7] = Homo sapiens, read-out: pERK IC50 (4 h), 4 h compound treatment
[8] = Homo sapiens, MIA PaCa-2, read-out: pERK IC50 (4 h), 4 h compound treatment
[9] = read-out: Coupled Exchange IC50 (5 min), 5 min compound pre-incubation
[10] = read-out: Coupled Exchange IC50 (20 h), 20 h compound pre-incubation

GDP-bound KRAS protein (aa 1-169), containing both G12C and C118A amino acid substitutions, sequence (P01116 other isoform, or with tags, fused parts or gaps G12C/C118A): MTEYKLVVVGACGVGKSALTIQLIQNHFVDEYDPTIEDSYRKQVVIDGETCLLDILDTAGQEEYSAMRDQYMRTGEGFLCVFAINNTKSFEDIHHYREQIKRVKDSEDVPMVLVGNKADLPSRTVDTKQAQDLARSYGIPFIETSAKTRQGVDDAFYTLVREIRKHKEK

Row | Compound | IC50 [1, 4] [nM] | IC50 [2, 5] [nM] | IC50 [3, 6] [nM] | IC50 [1, 7] [nM] | IC50 [3, 8] [nM] | IC50 [2, 9] [nM] | IC50 [2, 10] [nM] | IC50 ([1]; read-out: pERK IC50 (4 h, A549), 4 h compound treatment) [nM] | IC50 ([3]; read-out: pERK IC50 (4 h, MiaPaCa-2), 4 h compound treatment) [nM]
1 | C=CC(=O)N1CC(N(C)C(=O)Cn2c(C3CC3)c(C(=O)N3CCc4c(cccc4OC)C3)c3cc(Cl)cc(C)c32)C1 [Example 4-3, 2-(5-Chloro-2-cyclopropyl-3-((5-methoxy-3,4-dihydro-2(1H)-isoquinolinyl)carbonyl)-7-methyl-1H-indol-1-yl)-N-methyl-N-(1-(2-propenoyl)-3-azetidinyl)acetamide] | 74100 | 120 | 150 |  |  |  |  |  | 
2 | C=CC(=O)N1CC(N(C)C(=O)Cn2c(CC3CC3)c(C(=O)N3CCc4c(cccc4OC)C3)c3cc(Cl)cc(C)c32)C1 [Example 4-4, 2-(5-Chloro-2-(cyclopropylmethyl)-3-((5-methoxy-3,4-dihydro-2(1H)-isoquinolinyl)carbonyl)-7-methyl-1H-indol-1-yl)-N-methyl-N-(1-(2-propenoyl)-3-azetidinyl)acetamide] | 29300 | 100 | 180 |  |  |  |  |  | 
3 | C=CC(=O)N1CC(N(C)C(=O)Cn2c(C)c(C(=O)N3CCc4c(cccc4OC)C3)c3cc(Br)cc(C)c32)C1 [Example 4-5, 2-(5-Bromo-3-((5-methoxy-3,4-dihydro-2(1H)-isoquinolinyl)carbonyl)-2,7-dimethyl-1H-indol-1-yl)-N-methyl-N-(1-(2-propenoyl)-3-azetidinyl)acetamide] | > 100000 | 90 | 270 |  |  |  |  |  | 
4 | C=CC(=O)N1CC(N(C)C(=O)Cn2c(CC)c(C(=O)N3CCN(c4ccc(C#N)cn4)C[C@H]3C)c3cc(Cl)cc(C)c32)C1 [Example 4-6, 2-(5-Chloro-3-(((2R)-4-(5-cyano-2-pyridinyl)-2-methyl-1-piperazinyl)carbonyl)-2-ethyl-7-methyl-1H-indol-1-yl)-N-methyl-N-(1-(2-propenoyl)-3-azetidinyl)acetamide] | 86200 | 130 | 730 |  |  |  |  |  | 
5 | C=CC(=O)N1CC(NC(=O)Cn2c(C)c(-c3cnccc3C(C)C)c3cc(Cl)ccc32)C1 [Example 5-1, 2-(5-Chloro-2-methyl-3-(4-(2-propanyl)-3-pyridinyl)-1H-indol-1-yl)-N-(1-(2-propenoyl)-3-azetidinyl)acetamide] |  | 780 |  | > 100000 | 1320 |  |  |  | 
6 | C=CC(=O)N1CC(NC(=O)Cn2c(C)c(-c3cncnc3C(C)C)c3cc(Cl)ccc32)C1 [Example 5-2, 2-(5-Chloro-2-methyl-3-(4-(2-propanyl)-5-pyrimidinyl)-1H-indol-1-yl)-N-(1-(2-propenoyl)-3-azetidinyl)acetamide] |  | 1050 |  | > 100000 | 1490 |  |  |  | 
7 | C=CC(=O)N1CC(NC(=O)Cn2c(C)c(-c3ccccc3C(C)C)c3cc(Cl)ccc32)C1 [Example 5-3, 2-(5-Chloro-2-methyl-3-(2-(2-propanyl)phenyl)-1H-indol-1-yl)-N-(1-(2-propenoyl)-3-azetidinyl)acetamide] |  | 630 |  | > 33300 | 2060 | 4110 | 220 |  | 
8 | C=CC(=O)N1CC(NC(=O)Cn2c(C)c(-c3ccccc3N3CCCC3)c3cc(Cl)ccc32)C1 [Example 5-4, 2-(5-Chloro-2-methyl-3-(2-(1-pyrrolidinyl)phenyl)-1H-indol-1-yl)-N-(1-(2-propenoyl)-3-azetidinyl)acetamide] |  | 380 |  | > 100000 | 5490 |  |  |  | 
9 | C=CC(=O)N1CC(NC(=O)Cn2c(C)c(C(=O)N3CCc4c(cccc4OC)C3)c3cc(C)cc(C)c32)C1 [Example 6] | > 100000 | 340 | 1120 |  |  |  |  |  | 
10 | C=CC(=O)N1CC(N(C)C(=O)Cn2c(C)c(C(=O)N3CCN(c4ccc(C#N)cn4)C[C@H]3C)c3cc(Br)ccc32)C1 [Example 8] | > 100000 | 220 | 1560 |  |  |  |  |  | 
11 | C=CC(=O)N1CC(NC(=O)Cn2c(C)c(C(=O)N3[C@H](C)c4ccc(F)cc4C[C@@H]3C)c3cc(Br)cc(C)c32)C1 [Example 9] | 41600 | 200 | 1560 |  |  |  |  |  | 
12 | C=CC(=O)N1CC(N(C)C(=O)Cn2c(C)c(C(=O)N3CCN(c4ccc(C(F)(F)F)cn4)CC3)c3cc(Br)ccc32)C1 [Example 10] | 43400 | 820 | 1580 |  |  |  |  |  | 
13 | C=CC(=O)N1CC(NC(=O)Cn2c(C3CC3)c(C(=O)N3CCCC(C)(C)C3)c3cc(Cl)cc(C)c32)C1 [Example 11] | 36400 | 660 | 1600 |  |  |  |  |  | 
14 | C=CC(=O)N1CC(NC(=O)Cn2c(C)c(C(=O)N3CCc4c(ccnc4OC)C3)c3cc(Br)ccc32)C1 [Example 12] | > 100000 | 510 | 1650 |  |  |  | 170 |  | 
15 | C=CC(=O)N1CC(NC(=O)Cn2c(C)c(C(=O)N3CCc4c(cccc4OC)C3)c3cc(Br)ccc32)C1 [Example 13] | > 100000 | 300 | 1680 |  |  |  | 110 |  | 
16 | C=CC(=O)N1CC(NC(=O)Cn2c(C3CC3)c(C(=O)N3CCN(c4ccc(C#N)cn4)CC3)c3cc(Cl)cc(C)c32)C1 [Example 14] | > 100000 | 580 | 1700 |  |  |  |  |  | 
17 | C=CC(=O)N1CC(NC(=O)Cn2cc(C(=O)N3CCc4c(ccnc4OC)C3)c3c(Cl)c(Cl)ccc32)C1 [Example 15] | > 100000 | 220 | 1790 |  |  |  |  |  | 

Row | Compound | IC50 [1, 4] [nM] | IC50 [2, 5] [nM] | IC50 [3, 6] [nM] | IC50 [1, 7] [nM] | IC50 [3, 8] [nM] | IC50 [2, 9] [nM] | IC50 [2, 10] [nM] | IC50 ([1]; read-out: pERK IC50 (4 h, A549), 4 h compound treatment) [nM] | IC50 ([3]; read-out: pERK IC50 (4 h, MiaPaCa-2), 4 h compound treatment) [nM]
18 | C=CC(=O)N1CC(NC(=O)Cn2c(C)c(C(=O)N3CCc4c(cccc4OC)C3)c3cc([N+](=O)[O-])ccc32)C1 [Example 17] |  | 1220 |  |  |  |  | 300 | > 100000 | 1830
19 | C=CC(=O)N1CC(NC(=O)Cn2c(C)c(-c3cnccc3C3CC3)c3cc(Cl)ccc32)C1 [Example 18] |  | 970 |  | > 100000 | 1850 |  |  |  | 
20 | C=CC(=O)N1CC(N(C)C(=O)Cn2c(C3CC3)c(C(=O)N3CCN(c4ccc(C#N)cn4)CC3)c3cc(Cl)cc(C)c32)C1 [Example 19] | > 100000 | 610 | 1870 |  |  |  |  |  | 
21 | C=CC(=O)N1CC(N(C)C(=O)Cn2c(C)c(C(=O)N3CCN(c4ccc(Br)cn4)CC3)c3cc(Br)ccc32)C1 [Example 21] | 27300 | 490 | 1950 |  |  |  | 100 |  | 
22 | C=CC(=O)N1CC(NC(=O)Cn2c(C)c(C(=O)N3[C@H](C)CN(c4ccc(C#N)cn4)C[C@H]3C)c3cc(Br)ccc32)C1 [Example 22] | > 100000 | 190 | 2020 |  |  |  |  |  | 
23 | C=CC(=O)N1CC(NC(=O)Cn2c(C3CC3)c(C(=O)N3CCOC(C)(C)C3)c3cc(Cl)cc(C)c32)C1 [Example 23] | > 100000 | 950 | 2350 |  |  |  |  |  | 
24 | C=CC(=O)N1CC(NC(=O)Cn2c(C)c(C(=O)N3CCc4c(C)cccc4C3)c3cc(Br)ccc32)C1 [Example 25] | > 100000 | 540 | 2470 |  |  |  | 90 |  | 
25 | C=CC(=O)N1CC(N(C)C(=O)Cn2c(C)c(C(=O)N3CCN(c4ccc(C#N)cn4)CC3)c3cc(Br)ccc32)C1 [Example 27] | > 100000 | 770 | 2500 |  |  |  | 240 |  | 
26 | C=CC(=O)N1CC(NC(=O)Cn2c(C)c(C(=O)N3CCc4c(ccnc4OC)C3)c3cc(Cl)ccc32)C1 [Example 28] | > 100000 | 590 | 2630 |  |  |  | 180 |  | 
27 | C=CC(=O)N1CC(NC(=O)Cn2c(C)c(-c3cncnc3C3CC3)c3cc(Cl)ccc32)C1 [Example 30] |  | 2320 |  | > 100000 | 2680 |  |  |  | 
28 | C=CC(=O)N1CC(NC(=O)Cn2c(C)c(-c3ccccc3CN(C)C)c3cc(Cl)ccc32)C1 [Example 32] |  | 6050 |  | > 100000 | 2730 | 202000 |  |  | 
29 | C=CC(=O)N1CC(N(C)C(=O)Cn2c(C)c(C(=O)N3CCc4c(cccc4OC)C3)c3cc(Cl)ccc32)C1 [Example 33] | > 100000 | 210 | 2800 |  |  |  | 130 |  | 
30 | C=CC(=O)N1CC(NC(=O)Cn2c(C)c(C(=O)N3CCc4ccccc4C3(C)C)c3cc(Br)cc(C)c32)C1 [Example 35] | 55700 | 290 | 3060 |  |  |  |  |  | 
31 | C=CC(=O)N1CC(NC(=O)Cn2c(C)c(-c3ccccc3C3CC3)c3cc(Cl)ccc32)C1 [Example 36] |  | 710 |  | > 33300 | 3310 |  | 200 |  | 
32 | C=CC(=O)N1CC(N(C)C(=O)Cn2c(C)c(C(=O)N3CCN(c4ccc([N+](=O)[O-])cn4)CC3)c3cc(Br)ccc32)C1 [Example 38] | > 100000 | 760 | 3330 |  |  |  | 220 |  | 
33 | C=CC(=O)N1CC(NC(=O)Cn2c(C)c(C(=O)N3Cc4ccccc4CC3C)c3cc(Br)cc(C)c32)C1 (stereo not shown) [Example 39] | 60300 | 330 | 3350 |  |  |  |  |  | 
